Assay: xn = mol fraction of the nth substance listed
Settings: 101 kPa, Liquid; for speed of sound: Sing-around technique in a fixed-path interferometer

CC(C)CCl [1-chloro-2-methylpropane] + CC(C)OC(C)C
Settings	mass density [kg/m3]	speed of sound [m/s]
283.15 K, x1 = 0.0549	740.509	1069.1
283.15 K, x1 = 0.091	745.071	1071.7
283.15 K, x1 = 0.1977	758.96	1079.6
283.15 K, x1 = 0.2934	772.077	1087
283.15 K, x1 = 0.3911	785.941	1094.4
283.15 K, x1 = 0.5137	804.21	1103.7
283.15 K, x1 = 0.6034	818.258	1110.5
283.15 K, x1 = 0.6769	830.206	1116.2
283.15 K, x1 = 0.8059	852.473	1126.3
283.15 K, x1 = 0.9111	871.773	1134.7
283.15 K, x1 = 0.9646	881.981	1139
288.15 K, x1 = 0.0549	735.346	1046.8
288.15 K, x1 = 0.091	739.888	1049.4
288.15 K, x1 = 0.1977	753.737	1057.5
288.15 K, x1 = 0.2934	766.807	1064.8
288.15 K, x1 = 0.3911	780.617	1072.3
288.15 K, x1 = 0.5137	798.831	1081.8
288.15 K, x1 = 0.6034	812.821	1088.7
288.15 K, x1 = 0.6769	824.734	1094.5
288.15 K, x1 = 0.8059	846.936	1104.9
288.15 K, x1 = 0.9111	866.179	1113.5
288.15 K, x1 = 0.9646	876.368	1117.9
293.15 K, x1 = 0.0549	730.142	1024.4
293.15 K, x1 = 0.091	734.678	1027
293.15 K, x1 = 0.1977	748.467	1035.1
293.15 K, x1 = 0.2934	761.481	1042.6
293.15 K, x1 = 0.3911	775.245	1050.3
293.15 K, x1 = 0.5137	793.406	1059.9
293.15 K, x1 = 0.6034	807.35	1066.9
293.15 K, x1 = 0.6769	819.228	1072.8
293.15 K, x1 = 0.8059	841.356	1083.4
293.15 K, x1 = 0.9111	860.549	1092.2
293.15 K, x1 = 0.9646	870.717	1096.8
298.15 K, x1 = 0.0549	724.887	1002.1
298.15 K, x1 = 0.091	729.395	1004.7
298.15 K, x1 = 0.1977	743.114	1013
298.15 K, x1 = 0.2934	756.06	1020.5
298.15 K, x1 = 0.3911	769.763	1028.2
298.15 K, x1 = 0.5137	787.825	1038
298.15 K, x1 = 0.6034	801.699	1045.2
298.15 K, x1 = 0.6769	813.519	1051.2
298.15 K, x1 = 0.8059	835.53	1062
298.15 K, x1 = 0.9111	854.603	1071
298.15 K, x1 = 0.9646	864.749	1075.6
303.15 K, x1 = 0.0549	719.603	979.86
303.15 K, x1 = 0.091	724.11	982.53
303.15 K, x1 = 0.1977	737.798	990.87
303.15 K, x1 = 0.2934	750.738	998.49
303.15 K, x1 = 0.3911	764.421	1006.3
303.15 K, x1 = 0.5137	782.446	1016.2
303.15 K, x1 = 0.6034	796.305	1023.5
303.15 K, x1 = 0.6769	808.11	1029.7
303.15 K, x1 = 0.8059	830.111	1040.8
303.15 K, x1 = 0.9111	849.196	1050
303.15 K, x1 = 0.9646	859.307	1054.8
308.15 K, x1 = 0.0549	714.28	957.82
308.15 K, x1 = 0.091	718.759	960.52
308.15 K, x1 = 0.1977	732.397	968.88
308.15 K, x1 = 0.2934	745.3	976.54
308.15 K, x1 = 0.3911	758.935	984.48
308.15 K, x1 = 0.5137	776.901	994.58
308.15 K, x1 = 0.6034	790.719	1002
308.15 K, x1 = 0.6769	802.492	1008.2
308.15 K, x1 = 0.8059	824.422	1019.6
308.15 K, x1 = 0.9111	843.468	1029
308.15 K, x1 = 0.9646	853.542	1033.8
313.15 K, x1 = 0.0549	708.887	935.95
313.15 K, x1 = 0.091	713.334	938.67
313.15 K, x1 = 0.1977	726.882	947.16
313.15 K, x1 = 0.2934	739.693	954.94
313.15 K, x1 = 0.3911	753.227	963
313.15 K, x1 = 0.5137	771.077	973.17
313.15 K, x1 = 0.6034	784.802	980.73
313.15 K, x1 = 0.6769	796.487	987.04
313.15 K, x1 = 0.8059	818.264	998.57
313.15 K, x1 = 0.9111	837.168	1008.1
313.15 K, x1 = 0.9646	847.176	1013

From the NIST ThermoML archive (doi:10.1021/je100765j)
